Results: patent US9084782B2, “Chemical inhibitors of cholesterol biosynthesis and venous angiogenesis” (The Regents of the University of California, priority 2011, dated 2015)

What was measured:
[1] = system: Tg(kdrl:GFP) zebrafish embryos; experiment: Caudal vein plexus (CVP) formation / venous angiogenesis in Tg(kdrl:GFP) zebrafish embryos; assay type: in vivo; settings: for anti-angiogenetic activity of aplexone analogs (inhibition of CVP formation / venous angiogenesis): SAR study, compared with aplexone; for ranking in the angiogenesis test: compounds of FIG. 11
Source text: Images of GFP expression in Tg(kdrl:GFP) embryos were acquired using a Zeiss SV-11 epifluorescence microscope. Confocal images were acquired using a Carl Zeiss Laser Scanning Systems LSM510 equipped with 20× air, 20× water or 40× water immersion objectives. For single time point confocal images, embryos were anesthetized with 0.01% tricaine and embedded in 1% agarose. When capturing time-lapse confocal movies, embryos were mounted in 3.5% methylcellulose (Sigma-Aldrich) and imaged for 5 hrs on a heated stage at 28.5° C. The images obtained were analyzed using the Zeiss LSM Image Brower version 4 and Image J.
A synthetic chemical library containing 168 compounds (Castellano et al., 2007) and 300 chemicals from Biomol International LP, consisting of 72 ion channel inhibitors (Cat No. 2805), 84 kinase/phosphatase inhibitors (Cat No. 2831), 84 orphan ligands (Cat No. 2825), and 60 endocannabinoids (Cat No. 2801) were screened. The synthetic small molecules were prepared through nucleophilic phosphine catalysis of allenoates (Zhu et al., 2003). Four Tg(kdrl:GFP) embryos were placed into each well of 96-well plates containing a 10 μM solution of each chemical compound dissolved in embryo buffer with 0.1% DMSO. The embryos were raised at 28.5° C. and examined for defects in blood vessel development at 1 and 2 days after treatment. Standard parameters such as numbers of somites and head to body angle were used to determine the stages of zebrafish embryos (Kimmel et al., 1995).
Aplexone treatment described in this study was carried out at a concentration of 10 μM starting at 10 hpf unless otherwise specified.
8 ng tnnt2 MO (Gene Tools) (Sehnert et al., 2002), 3 nl of 4 mM GGTI-2133 (Calbiochem), 3 nl of 5 mM L744,832 (Calbiochem) and 1 nl of 2M mevalonate (Sigma-Aldrich) were injected into 1-2 cell stage embryos.
The library of 168 compounds^24 prepared through the nucleophilic phosphine catalysis of allenes were screened using Tg(kdrl:GFP) zebrafish. Four embryos were placed in each well of 96-well plates containing a 10 uM solution of each chemical compound dissolved in embryo buffer with 0.1% DMSO. The embryos were raised at 28.5° C. and defects in blood vessel development were examined at 1 and 2 days after fertilization.

[2] = system: HMGCR pathway; experiment: Cholesterol assay in embryo lysate (Amplex Red); assay type: in vivo, zebrafish; settings: relative to 0.4% DMSO control
Protocol: The yolk was removed from embryos by vortexing in calcium-free Ringer's solution with 1 mM EDTA at 4° C. The embryos were then pelleted and washed with fresh calcium free Ringer's solution 5 times before being resuspended in cholesterol assay reaction buffer and were then lysed by sonication using a Sonifier 450 (Branson). Cholesterol levels in the embryo lysate were measured with an Amplex Red Cholesterol Assay Kit (Invitrogen) and Flex station II (Bucher Biotec). The total protein concentration of the embryo lysate was measured using a DC protein assay (Bio-Rad Laboratories) and SpectraMax plus (Molecular Devices).

| Compound | anti-angiogenetic activity of aplexone analogs (inhibition of CVP formation / venous angiogenesis) [1] | further results |
| --- | --- | --- |
| CC(=O)C1=CCC(c2ccccc2)N(S(=O)(=O)c2ccccc2)C1 (stereo not shown) [Compound 17] | showed inhibitory activity for venous angiogenesis |  |
| CC(=O)C1=CCC(c2ccc(F)cc2)N(S(=O)(=O)c2ccc(C)cc2)C1 (stereo not shown) [Compound 24] | abolished the biological activity |  |
| Cc1ccc(S(=O)(=O)N2CC(C(C)O)=CC[C@@H]2c2ccccc2)cc1 (stereo partly shown) [Compound 6] | did not inhibit the CVP formation |  |
| CC(=O)C1=CCC(c2ccc3c(c2)OCO3)N(S(=O)(=O)c2ccc(C)cc2)C1 (stereo not shown) [Compound 32] | not active |  |
| CC(=O)C1=CCC(c2cccs2)N(S(=O)(=O)c2ccc(C)cc2)C1 (stereo not shown) [Compound 33] | active | ranking in the angiogenesis test [1]: most active |
| CC(=O)C1=CCC(c2cccn2C)N(S(=O)(=O)c2ccc(C)cc2)C1 (stereo not shown) [Compound 36] | inactive |  |
| CC(O)(CCO)CC(=O)O (stereo not shown) [mevalonate, reference compound] |  | effect on aplexone's inhibition of CVP formation ([1]; 1 nl of 2M mevalonate injected, 5 μM aplexone from 2 hpf): blocks the inhibitory effects of aplexone |
| CC(=O)C1=CCC(c2ccc(C)o2)N(S(=O)(=O)c2ccc(C)cc2)C1 (stereo not shown) [Compound 35] | inactive |  |
| CC(=O)C1=CCC(c2ccco2)N(S(=O)(=O)c2ccc(C)cc2)C1 (stereo not shown) [Compound 34] | inactive |  |
| C=CCCC(=O)C1=CCC(c2ccccc2)N(S(=O)(=O)c2ccc(C)cc2)C1 (stereo not shown) [Compound 8] | showed the bioactivity of aplexone albeit to a lesser extent |  |
| CC(=O)C1=CCC(c2cccc3ccccc23)N(S(=O)(=O)c2ccc(C)cc2)C1 (stereo not shown) [Compound 37] | inactive |  |
| CC(=O)C1=CCC(c2ccccc2)NC1 (stereo not shown) [Compound 11] | failed to inhibit the formation of CVP |  |
| CC(=O)C1=CCC(c2ccccc2)N(S(C)(=O)=O)C1 (stereo not shown) [Compound 13] | failed to inhibit the formation of CVP | anti-angiogenetic activity of aplexone analogs (inhibition of CVP formation / venous angiogenesis) ([1]; listed as AP13): normal venous angiogenesis; embryonic cholesterol levels [2]: normal cholesterol levels |
| CC(=O)C1=CCCN(S(=O)(=O)c2ccc(C)cc2)C1 [Compound 16] | developed a single-lumen caudal vein like aplexone, albeit in lower efficiency |  |
| CC(=O)C1=CCC(c2ccccc2)N(S(=O)(=O)c2cccc(C)c2)C1 (stereo not shown) [Compound 19] | without showing much decrease in the activity |  |
| CC[C@H](C)[C@@H](CO[C@@H](Cc1ccccc1)C(=O)N[C@@H](CCS(C)(=O)=O)C(=O)OC(C)C)NC[C@@H](N)CS [L744,832, reference compound] |  | CVP formation ([1]; 3 nl of 5 mM L744,832 injected at 1-2 cell stage, 48 hpf): does not affect the formation of the CVP |
| c1ccc2c(-c3ccncc3)c[nH]c2c1 [Rockout, reference compound] |  | CVP formation ([1]; 50 μM Rockout, 48 hpf): recapitulated the caudal vein phenotype of aplexone treatment |
| CC(=O)C1=CCC(c2ccccc2)N(S(=O)(=O)c2ccc(Cl)cc2)C1 (stereo not shown) [Compound 20] | showed inhibitory activity for venous angiogenesis |  |
| CC(=O)C1=CCC(c2ccc(Cl)cc2)N(S(=O)(=O)c2ccc(C)cc2)C1 (stereo not shown) [Compound 25] | diminished the antiangiogenic activity |  |
| CC(C)C[C@H](NC(=O)c1ccc(NCc2cnc[nH]2)cc1-c1cccc2ccccc12)C(=O)O [GGTI-2133, reference compound] |  | CVP formation ([1]; 3 nl of 4 mM GGTI-2133 injected at 1-2 cell stage, 48 hpf): CVP phenotypes reminiscent of aplexone treatment |
| CC(=O)C1=CCC(c2ccccc2)N(S(=O)(=O)c2ccccc2C)C1 (stereo not shown) [Compound 18] | without showing much decrease in the activity |  |
| CC(=O)C1=CCC(c2ccc(Cl)c(Cl)c2)N(S(=O)(=O)c2ccc(C)cc2)C1 (stereo not shown) [Compound 31] | not active |  |
| CC(C)c1c(C(=O)Nc2ccccc2)c(-c2ccccc2)c(-c2ccc(F)cc2)n1CC[C@@H](O)C[C@@H](O)CC(=O)O [atorvastatin, reference compound] |  | CVP formation at suboptimal level ([1]; 2 μM single agent): normal CVP; CVP formation ([1]; atorvastatin-treated embryos, from 10 hpf, imaged at 48 hpf): phenotypes similar to those observed in embryos exposed to aplexone; embryonic cholesterol levels [2]: reduce cholesterol level significantly |
| CC(=O)C1=CCC(c2ccc(C)cc2)N(S(=O)(=O)c2ccc(C)cc2)C1 (stereo not shown) [Compound 26] | active | ranking in the angiogenesis test [1]: most active |
| CC(=O)C1=CCC(c2ccccc2)N(Cc2ccccc2)C1 (stereo not shown) [Compound 12] | failed to inhibit the formation of CVP |  |
